Results from ChEMBL document CHEMBL1944637, “Asymmetric synthesis and cytotoxicity of (-)-saframycin A analogues” (Eur J Med Chem, 2012).
pIC50: −log10 of the molar value.

Columns and labels:
MCF7 = experiment: Cytotoxicity against human MCF7 cells assessed as cell viability after 72 hrs by MTT assay; type: functional, cell-based; conditions: MCF7, 72 h
HeLa = experiment: Cytotoxicity against human HeLa cells assessed as cell viability after 72 hrs by MTT assay; type: functional, cell-based
Bel-7402 = experiment: Cytotoxicity against human Bel7402 cells assessed as cell viability after 72 hrs by MTT assay; type: functional, cell-based; conditions: Bel-7402, 72 h
A549 [1] = experiment: Cytotoxicity against human A549 cells assessed as cell viability after 72 hrs by MTT assay; type: functional, cell-based; conditions: A549, 72 h
KB = experiment: Cytotoxicity against human KB cells assessed as cell viability after 72 hrs by MTT assay; type: functional, cell-based
[2] = Cytotoxicity against human HELF cells assessed as cell viability after 72 hrs by MTT assay; type: functional, cell-based
KETR3 = experiment: Cytotoxicity against human Ketr3 cells assessed as cell viability after 72 hrs by MTT assay; type: functional, cell-based; conditions: KETR3, 72 h
A2780 = experiment: Cytotoxicity against human A2780 cells assessed as cell viability after 72 hrs by MTT assay; type: functional, cell-based; conditions: A2780, 72 h
HCT-8 = experiment: Cytotoxicity against human HCT8 cells assessed as cell viability after 72 hrs by MTT assay; type: functional, cell-based; conditions: HCT-8, 72 h
[3] = Cytotoxicity against human BGC803 cells assessed as cell viability after 72 hrs by MTT assay; type: functional, cell-based; conditions: BGC803, 72 h
A549 [4] = experiment: Ratio of Saframycin A IC50 to compound IC50 for human A549 cells; type: functional

Work on `COC1=C(C)C(=O)C2=C(C1=O)[C@@H]1[C@@H]3CC4=C(C(=O)C(OC)=C(C)C4=O)[C@H](CNC(=O)c4ccco4)N3[C@@H](C#N)[C@H](C2)N1C` yielded a pIC50 (MCF7) of 7.82, a pIC50 (HeLa) of 8.59 and a pIC50 (Bel-7402) of 8.91. The pIC50 (A549 [1]) was 9.02, the pIC50 (KB) was 8.45 and the pIC50 [2] was 8.77. The pIC50 (KETR3) was 8.52, the pIC50 (A2780) was 8.41 and the pIC50 (HCT-8) was 7.91. The pIC50 [3] was 7.79.

`CCc1ccc(/C=C/C(=O)NC[C@H]2C3=C(C[C@H]4[C@H]5C6=C(C[C@@H]([C@H](C#N)N24)N5C)C(=O)C(C)=C(OC)C6=O)C(=O)C(C)=C(OC)C3=O)cc1` showed a pIC50 (MCF7) of 7.73, a pIC50 (HeLa) of 8.06 and a pIC50 (Bel-7402) of 7.61. The pIC50 (A549 [1]) was 7.01, the pIC50 (KB) was 7.55 and the pIC50 [2] was < 7.00. The pIC50 (KETR3) was 7.28, the pIC50 (A2780) was 7.59 and the pIC50 (HCT-8) was < 7.00. For the same compound, the pIC50 [3] was 7.67.

In the case of `COC1=C(C)C(=O)C2=C(C1=O)[C@@H]1[C@@H]3CC4=C(C(=O)C(OC)=C(C)C4=O)[C@H](CNC(=O)/C=C/c4cccc(C(F)(F)F)c4)N3[C@@H](C#N)[C@H](C2)N1C`, the pIC50 (MCF7) was 8.38, the pIC50 (HeLa) was 8.10 and the pIC50 (Bel-7402) was 7.53. For the same compound, the pIC50 (A549 [1]) was 7.11, the pIC50 (KB) was 7.93 and the pIC50 [2] was < 7.00. For the same compound, the pIC50 (KETR3) was 7.54, the pIC50 (A2780) was 7.40 and the pIC50 (HCT-8) was 7.36. The pIC50 [3] was 7.65.

In the case of `COC1=C(C)C(=O)C2=C(C1=O)[C@@H]1[C@@H]3CC4=C(C(=O)C(OC)=C(C)C4=O)[C@H](CNC(=O)c4cnccn4)N3[C@@H](C#N)[C@H](C2)N1C`, the pIC50 (MCF7) was 8.51, the pIC50 (HeLa) was 8.72 and the pIC50 (Bel-7402) was 8.73. For the same compound, the pIC50 (A549 [1]) was 8.72, the pIC50 (KB) was 8.73 and the pIC50 [2] was 8.82. The pIC50 (KETR3) was 8.79, the pIC50 (A2780) was 8.14 and the “Ratio IC50” value (A549 [4]) was 20. For the same compound, the pIC50 (HCT-8) was 7.98 and the pIC50 [3] was 7.92.

Work on `COC1=C(C)C(=O)C2=C(C1=O)[C@@H]1[C@@H]3CC4=C(C(=O)C(OC)=C(C)C4=O)[C@H](CNC(=O)c4cccs4)N3[C@@H](C#N)[C@H](C2)N1C` yielded a pIC50 (MCF7) of 7.34, a pIC50 (HeLa) of 7.76 and a pIC50 (Bel-7402) of 7.78. The pIC50 (A549 [1]) was < 7.00, the pIC50 (KB) was 7.76 and the pIC50 [2] was 7.57. For the same compound, the pIC50 (KETR3) was 7.43, the pIC50 (A2780) was 7.56 and the pIC50 (HCT-8) was < 7.00. The pIC50 [3] was 8.38.

Work on `COC1=C(C)C(=O)C2=C(C1=O)[C@@H]1[C@@H]3CC4=C(C(=O)C(OC)=C(C)C4=O)[C@H](CNC(=O)c4cc5ccccc5[nH]4)N3[C@@H](C#N)[C@H](C2)N1C` yielded a pIC50 (MCF7) of 7.64, a pIC50 (HeLa) of 8.28 and a pIC50 (Bel-7402) of 7.94. It also gave a pIC50 (A549 [1]) of 7.46, a pIC50 (KB) of 7.83 and a pIC50 [2] of 7.76. For the same compound, the pIC50 (KETR3) was 7.71, the pIC50 (A2780) was 7.95 and the pIC50 (HCT-8) was 7.04. The pIC50 [3] was 7.58.

`COC1=C(C)C(=O)C2=C(C1=O)[C@@H]1[C@@H]3CC4=C(C(=O)C(OC)=C(C)C4=O)[C@H](CNC(=O)/C=C/c4ccc(OC)c(OC)c4OC)N3[C@@H](C#N)[C@H](C2)N1C` showed a pIC50 (MCF7) of 8.26, a pIC50 (HeLa) of 8.41 and a pIC50 (Bel-7402) of 7.94. For the same compound, the pIC50 (A549 [1]) was 7.09, the pIC50 (KB) was 8.01 and the pIC50 [2] was < 7.00. The pIC50 (KETR3) was 7.81, the pIC50 (A2780) was 7.47 and the pIC50 (HCT-8) was 7.56. For the same compound, the pIC50 [3] was 8.20.

For `COC1=C(C)C(=O)C2=C(C1=O)[C@@H]1[C@@H]3CC4=C(C(=O)C(OC)=C(C)C4=O)[C@H](CNC(=O)c4nccc5ccccc45)N3[C@@H](C#N)[C@H](C2)N1C`, the pIC50 (MCF7) was 7.62, the pIC50 (HeLa) was 7.57 and the pIC50 (Bel-7402) was 7.07. For the same compound, the pIC50 (A549 [1]) was 7.05, the pIC50 (KB) was 7.13 and the pIC50 [2] was 7.07. For the same compound, the pIC50 (KETR3) was < 7.00, the pIC50 (A2780) was 7.01 and the pIC50 (HCT-8) was < 7.00. The pIC50 [3] was 7.23.

In the case of `COc1c(C)cc2c(c1O)[C@@H]1[C@@H]3Cc4cc(C)c(OC)c(O)c4[C@H](CNC(=O)OC(C)(C)C)N3[C@@H](C#N)[C@H](C2)N1C`, the pIC50 (MCF7) was 7.76, the pIC50 (HeLa) was 7.03 and the pIC50 (Bel-7402) was 7.49. For the same compound, the pIC50 (A549 [1]) was 7.57, the pIC50 (KB) was 7.50 and the pIC50 [2] was 7.71. For the same compound, the pIC50 (KETR3) was 7.63, the pIC50 (A2780) was 7.35 and the pIC50 (HCT-8) was 7.20. The pIC50 [3] was 7.49.

For `COC1=C(C)C(=O)C2=C(C1=O)[C@@H]1[C@@H]3CC4=C(C(=O)C(OC)=C(C)C4=O)[C@H](CNC(=O)c4cc(OC)c(OC)c(OC)c4)N3[C@@H](C#N)[C@H](C2)N1C`, the pIC50 (MCF7) was 8.95, the pIC50 (HeLa) was 8.60 and the pIC50 (Bel-7402) was 8.52. It also gave a pIC50 (A549 [1]) of 7.73, a pIC50 (KB) of 8.90 and a pIC50 [2] of 8.47. For the same compound, the pIC50 (KETR3) was 8.44, the pIC50 (A2780) was 8.44 and the pIC50 (HCT-8) was 7.83. The pIC50 [3] was 8.38.

Compound `COC1=C(C)C(=O)C2=C(C1=O)[C@@H]1[C@@H]3CC4=C(C(=O)C(OC)=C(C)C4=O)[C@H](CNC(=O)c4ccccn4)N3[C@@H](C#N)[C@H](C2)N1C` has a pIC50 (MCF7) of 7.81, a pIC50 (HeLa) of 8.14 and a pIC50 (Bel-7402) of 8.42. It also gave a pIC50 (A549 [1]) of 7.52, a pIC50 (KB) of 8.04 and a pIC50 [2] of 8.18. For the same compound, the pIC50 (KETR3) was 7.82, the pIC50 (A2780) was 7.92 and the pIC50 (HCT-8) was 7.66. For the same compound, the pIC50 [3] was 7.49.
